What was measured:
Assay type in all cases: in vivo, human
[1] = system: cognitively impaired patients with EDS associated with OSA; test: SHARP clinical study: Digit Symbol Substitution Test subtest of RBANS (DSST RBANS)
Source text: (§1) SHARP (Solriamfetol's Effect on Cognitive Health in Apnea Participants During a Randomized Placebo-controlled Study) was a randomized, double-blind, placebo-controlled, crossover, multicenter, trial in which 59 patients with excessive daytime sleepiness (EDS) and obstructive sleep apnea (OSA), who were experiencing cognitive impairment, were all treated with solriamfetol for 2 weeks, and with placebo for 2 weeks, with the treatment periods separated by 1 week of down-titration and washout. Patients were randomized in a 1:1 ratio either to treatment with solriamfetol followed by placebo (sequence 1), or to treatment with placebo followed by solriamfetol (sequence 2). Solriamfetol was administered orally once daily, starting at 75 mg per day for the first three days and 150 mg per day for the remainder of the 2-week treatment period. The primary outcome measure was the Digit Symbol Substitution Test subtest of the Repeatable Battery for the Assessment of Neuropsychological Status (DSST RBANS). The Digit Symbol Substitution subtest is also referred to as “Coding.” The prespecified primary endpoint was the change from baseline in cognitive function as measured by the DSST RBANS after 2 weeks of treatment (average of the 2-, 4-, 6-, and 8-hour post-dose DSST RBANS scores). […] The secondary endpoints were analyzed in a pre-specified testing sequence. […]

[2] = system: cognitively impaired patients with EDS associated with OSA; test: SHARP clinical study: British Columbia Cognitive Complaints Inventory (BC-CCI); settings: 2 weeks treatment, 150 mg per day
Source text: as §1

[3] = system: cognitively impaired patients with EDS associated with OSA; test: SHARP clinical study: Epworth Sleepiness Scale (ESS); settings: 2 weeks treatment, 150 mg per day
Source text: as §1

[4] = system: cognitively impaired patients with EDS associated with OSA; test: SHARP clinical study: adverse events; settings: solriamfetol treatment, 75 then 150 mg per day oral, 2 weeks
Source text: as §1

NC(=O)OC[C@H](N)Cc1ccccc1 [solriamfetol, (R)-2-amino-3-phenylpropyl carbamate]
effect size, DSST RBANS vs. placebo ([1]; 2 weeks treatment, 150 mg per day): 0.36 | change from baseline on the DSST RBANS ([1]; after 2 weeks oral once daily (75 mg 3 days, then 150 mg), average of 2-, 4-, 6-, 8-hour post-dose scores, placebo 4.75, p=0.009): 6.49 | effect size, BC-CCI overall score vs. placebo [2]: 0.43 | improvement in cognitive function, BC-CCI overall score compared to placebo ([2]; p=0.002): Statistically significant improvement | effect size, ESS vs. placebo [3]: 0.50 | improvement on the ESS relative to placebo ([3]; p=0.004): approximately twice that observed with placebo | adverse event incidence: anxiety [4]: 3.4% | adverse event incidence: nausea [4]: 6.9%

Source: patent US20250032442A1, “METHODS AND COMPOSITIONS FOR TREATING COGNITIVE IMPAIRMENT” (AXSOME MALTA LTD., priority 2021, published 2025)
